Test results as given in US6313171A, “Method for preventing or treating elevated blood lipid level-related diseases by administering cinnamic acid derivatives” (Korea Research Institute of Bioscience & Biotechnology, priority 1998, dated 2001).

Key:
[1] = type: in vivo, rabbit (New Zealand White); settings: rabbits, 1% cholesterol diet plus 0.1% derivative or 1 mg/kg Lovastatin, 8 weeks
Experimental: (§1) 30 three-month-old male New Zealand White rabbits (Yeonam Horticulture and Animal Husbandry College, Korea), each weighing about 2.5 to 2.6 kg, were raised under condition of temperature 20±2° C., relative humidity 55±5%, and photoperiod 12L/12D. The rabbits were divided into 5 groups and 5 groups of rabbits were fed with 5 different diets, i.e., RC4 diet (Oriental Yeast Co., Japan) containing 1% cholesterol (Control group); 1% cholesterol plus 1 mg/kg Lovastatin® (Merck, U.S.A.) (Lovastatin group); 1% cholesterol plus 0.1% 4-hydroxycinnamic acid (4-hydroxycinnamic acid group); 1% cholesterol plus 0.1% 3,4-dihydroxycinnamic acid (3,4-dihydroxycinnamic acid group); and 1% cholesterol plus 0.1% 3,4-dihydroxyhydrocinnamic acid (3,4-dihydroxyhydrocinnamic acid group), respectively. RC4 diet comprises 7.6% moisture, 22.8% crude protein, 2.8% crude fat, 8.8% crude ash, 14.4% crude cellulose and 43.6% soluble nitrogen-free substances. Cinnamic acid derivatives were purchased from Sigma Chemical Co. (St. Louis, Mo.).
(§2) The rabbits were fed for 8 weeks while being allowed free access to the diets and water.
After eight weeks, the rabbits were anesthetized with an intramuscular injection of ketamine (50 mg/kg) in the femoral region and sacrificed. A blood sample was taken from the heart of each rabbit, allowed to stand for 2 hours and centrifuged at 3,000 rpm for 15 minutes and the supernatant serum was separated and stored in a freezer before use.
The chemical analysis of blood was carried out by employing a blood chemical analyzer (CIBA Corning 550 Express, USA) to determine the changes in GOT, GPT, total cholesterol, HDL-cholesterol and triglyceride levels.

[2] = system: main artery; test: Analysis for fatty streak in the main artery of rabbits; type: in vivo, rabbit (New Zealand White)
Experimental: Cinnamic acid derivatives were purchased from Sigma Chemical Co. (St. Louis, Mo.). The rabbits were fed for 8 weeks while being allowed free access to the diets and water. The chest of each of the rabbits sacrificed in Step 2 was incised. […] The main artery was incised in the middle along the longitudinal axis and pinned to a dish. The moist artery was photographed and, then, the staining of fatty streaks was carried out in accordance with the method of […]., et al. (J. Lab. Clin. Med., 121, 103-110(1993)) as follows. A part of the incised main artery was washed three times with anhydrous propylene glycol for 2 min. and stained for 30 min. with a saturated solution of Oil Red O (ORO, Sigma Co.) dissolved in propylene glycol. Thereafter, the artery was washed twice with 85% propylene glycol for 3 min. to remove remaining staining solution and, then washed with physiological saline. The artery was photographed and the photograph was traced. The area of stained region (fatty streak region) was determined with an image analyzer (LEICA, Q-600, Germany) and its proportion (%) to the total arterial area was calculated.

[3] = system: liver; test: Prevention of hepatic diseases: microscopic fatty liver grading in rabbits; type: in vivo, rabbit (New Zealand White)
Experimental: as §1, §2

[4] = Farmer et al. 1995; cited from earlier work

Structure (SMILES): CC[C@H](C)C(=O)O[C@H]1C[C@@H](C)C=C2C=C[C@H](C)[C@H](CC[C@@H]3C[C@@H](O)CC(=O)O3)[C@H]21 [Lovastatin, reference compound]
- HDL/TC ([1]; Control 2.5 ± 0.4): 4.9 ± 2.6%
- HDL-C (High density lipoprotein-cholesterol) ([1]; Control 50 ± 11): 58 ± 23 mg/dL
- TG (Triglyceride) ([1]; Control 170 ± 30): 153 ± 95 mg/dL
- TC (Total cholesterol) ([1]; Control 1995 ± 472): 1446 ± 263 mg/dL
- macrophage-lipid complex on the arterial endothelium ([2]; FIGS. 1A-1E, control: a thick layer): no or very thin layers of macrophage-lipid complex
- Fatty streak ([2]; proportion of total arterial area, Oil Red O, rabbits, 8 weeks, Control 80 ± 8): 15 ± 3%
- microscopic features of the liver ([3]; FIGS. 2A-2E, control: many cells containing excessive fat around the central vein): many cells containing excessive fat were observed around the central vein
- fatty liver grade (1+ to 4+) ([3]; grades 1+(0-25%), 2+(26-50%), 3+(51-75), 4+(76-100%), rabbits, 8 weeks, Control 3.2 ± 0.3): 3.4 ± 0.5
- side effects [4]: increase in creatine kinase in the liver and rhabdomyolysis
